In EP4592286A1, “MACROCYCLIC NITROGEN-CONTAINING CROWN ETHER COMPOUND AND USE THEREOF AS PROTEIN KINASE INHIBITOR” (Artivila Biopharma, priority 2022, dated 2024):

Experiments:
[1] = biological target: TYK2 (Homo sapiens, UniProt P29597); test: experiment of inhibiting kinase activity, TYK2; assay type: biochemical; settings: read-out: inhibition rate TYK2; for inhibition at 0.01 µM: at 10 nM; for inhibition at 0.1 µM: at 100 nM
Description: The inhibition rates of tested compounds on JAK1, JAK2, JAK3, TYK2, CDK7, CDK9, EGFR (T790M) and LRRK2 kinases were measured. The test concentrations of the compounds were 10 nM and 100 nM, and the detection was performed by replicate wells. Alternatively, compounds were 3-fold serial diluted from 10 µM for 10 concentrations in replicate wells.

[2] = biological target: T1, JAK3 (Mus musculus, UniProt Q62137); test: JAKs cell activity test: JAK3_pSTAT5 in IL-2-induced CTLL-2 cells; assay type: cell-based; settings: pSTAT5, IL-2-induced CTLL-2 cells
T1 construct: endogenous in cells; host or cells: CTLL-2
T1 sequence (Q62137 1-1100): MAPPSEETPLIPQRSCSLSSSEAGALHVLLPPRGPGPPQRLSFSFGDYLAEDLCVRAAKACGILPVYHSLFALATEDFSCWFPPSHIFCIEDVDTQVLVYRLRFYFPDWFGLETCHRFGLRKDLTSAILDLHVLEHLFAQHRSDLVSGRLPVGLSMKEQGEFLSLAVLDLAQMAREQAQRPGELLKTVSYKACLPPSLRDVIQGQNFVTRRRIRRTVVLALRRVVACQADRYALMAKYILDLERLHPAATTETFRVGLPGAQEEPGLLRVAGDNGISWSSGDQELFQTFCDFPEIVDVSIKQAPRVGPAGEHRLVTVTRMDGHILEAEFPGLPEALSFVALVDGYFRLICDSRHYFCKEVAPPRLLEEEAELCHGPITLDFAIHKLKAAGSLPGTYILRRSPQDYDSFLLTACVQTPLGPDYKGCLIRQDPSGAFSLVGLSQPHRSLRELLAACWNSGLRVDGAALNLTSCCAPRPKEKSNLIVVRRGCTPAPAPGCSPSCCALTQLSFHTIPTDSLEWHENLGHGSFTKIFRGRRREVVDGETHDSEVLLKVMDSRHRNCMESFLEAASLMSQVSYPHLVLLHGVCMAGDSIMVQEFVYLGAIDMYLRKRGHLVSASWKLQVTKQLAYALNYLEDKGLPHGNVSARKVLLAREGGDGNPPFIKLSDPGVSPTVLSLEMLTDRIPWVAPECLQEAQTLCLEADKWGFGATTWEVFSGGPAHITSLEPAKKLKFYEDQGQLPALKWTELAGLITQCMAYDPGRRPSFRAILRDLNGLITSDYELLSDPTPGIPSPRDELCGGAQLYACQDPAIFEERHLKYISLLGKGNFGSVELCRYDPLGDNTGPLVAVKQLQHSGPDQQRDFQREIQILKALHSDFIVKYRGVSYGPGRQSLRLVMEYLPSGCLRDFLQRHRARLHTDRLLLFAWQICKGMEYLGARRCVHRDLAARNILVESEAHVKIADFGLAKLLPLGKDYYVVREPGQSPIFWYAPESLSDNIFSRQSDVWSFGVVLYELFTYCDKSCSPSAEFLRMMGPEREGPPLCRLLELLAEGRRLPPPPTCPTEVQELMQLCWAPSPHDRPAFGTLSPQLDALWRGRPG
Description: THP1 cells were collected by centrifugation, resuspended with 1×HBSS, counted and diluted to a certain cell density. They were inoculated in a 384-well plate and cultured in a saturated humidity incubator with 37 °C and 5% CO2. The compound (DMSO final volume of 0.3%) was added to THP1 cells (10 doses in duplicates) and cultured in a saturated humidity incubator with 37 °C and 5% CO2. hIL-4 was added to stimulate cells and cultured in a saturated humidity incubator with 37 °C and 5% CO2. The lysis solution was added and incubated at room temperature. According to the instructions of AlphaLISA SureFire Ultra p-STAT6 detection kit, the lysis solution was transferred to pSTAT6 detection system, and the ALPHA signal was read by PE Envision microplate reader. The inhibition rate Inh%=((DMSO-sample)/(DMSO-background))×100 was calculated. IC50 was obtained by fitting with GraphPad Prism non-linear regression equation, and y=Bottom+(Top-Bottom)/(1+10^((LogIC50-x)×hillslope)), where x was the concentration of the compound and y was the inhibition rate.
JAK2_pSTAT5 was tesed in IL-3-induced BAF3 cells according to the above steps, and JAK3_pSTAT5 was tested in IL-2-induced CTLL-2 cells (without serum stimulation) according to the above steps.

[3] = biological target: T2, wild-type LRRK2 (Homo sapiens, UniProt Q5S007); test: detection of phosphorylated S935 in HEK293T overexpressing wild-type LRRK2; assay type: cell-based; settings: pS935, HEK293T overexpressing wild-type LRRK2, 1.5 hours
T2 construct: pCMV-flag-WT LRRK2 (full-length); expressed in transfected cells; host or cells: HEK293T
Description: Detection of phosphorylated S935 in HEK293T Overexpressing full-length LRRK2 (G2019S) or wild-type LRRK2
HEK293T cells was inoculated into a 6-well plate and cultured overnight. The next day, they were transiently transfected with plasmid pcDNA5-FRT/TO-FLAG LRRK2 (G2019S, full-length) or pCMV-flag-WT LRRK2 (full-length) by using Superfect transfection reagent and cultured at 37°C and 5% CO2 for 20-24 hours. The next day, cells were collected, resuspended at a density of 0.48×10^6 cells/ml, and inoculated into a 384-well plate at 50 microliters/well. Compound or DMSO solutions (volume ratio of 0.5%) were added by Tecan, and cultured at 37°C and 5% CO2 for 1.5 hours. After 1.5 hours, the supernatant was discarded, 50 microliters of 8% PFA were added in each well to fix the cells, and the cells were incubated at room temperature for 1 hour. The plate was washed with EL406 plate washer for three times, with 115 microliters of PBST per well, and the culture plate was patted to dryness. The cells were blocked with 50 microliters/well of Licor Odyssey blocking solution (0.1% Tween 20) at room temperature for 1.5 hours. The blocking solution was discarded and the culture plate was patted to dryness. 20 microliters of primary antibody (1:1000(pS935), diluted with Licor Odyssey buffer (0.1% Tween20)) was added into each well, and incubated at 4 °C overnight. The next day, the first antibody was discarded and washing was performed with PBST for five times. 20 microliters of secondary antibody (diluted with Licor Odyssey buffer (0.1% Tween20) at 1:500 and stained with DNA at 1:2000) were added into each well, and incubated at room temperature for 1 hour. The second antibody was discarded, and washing was performed for three times with PBST. The fluorescence intensity was measured by LICOR Odyssey imager Scanner, and the data was analyzed.

TYK2, sequence (P29597 whole entry): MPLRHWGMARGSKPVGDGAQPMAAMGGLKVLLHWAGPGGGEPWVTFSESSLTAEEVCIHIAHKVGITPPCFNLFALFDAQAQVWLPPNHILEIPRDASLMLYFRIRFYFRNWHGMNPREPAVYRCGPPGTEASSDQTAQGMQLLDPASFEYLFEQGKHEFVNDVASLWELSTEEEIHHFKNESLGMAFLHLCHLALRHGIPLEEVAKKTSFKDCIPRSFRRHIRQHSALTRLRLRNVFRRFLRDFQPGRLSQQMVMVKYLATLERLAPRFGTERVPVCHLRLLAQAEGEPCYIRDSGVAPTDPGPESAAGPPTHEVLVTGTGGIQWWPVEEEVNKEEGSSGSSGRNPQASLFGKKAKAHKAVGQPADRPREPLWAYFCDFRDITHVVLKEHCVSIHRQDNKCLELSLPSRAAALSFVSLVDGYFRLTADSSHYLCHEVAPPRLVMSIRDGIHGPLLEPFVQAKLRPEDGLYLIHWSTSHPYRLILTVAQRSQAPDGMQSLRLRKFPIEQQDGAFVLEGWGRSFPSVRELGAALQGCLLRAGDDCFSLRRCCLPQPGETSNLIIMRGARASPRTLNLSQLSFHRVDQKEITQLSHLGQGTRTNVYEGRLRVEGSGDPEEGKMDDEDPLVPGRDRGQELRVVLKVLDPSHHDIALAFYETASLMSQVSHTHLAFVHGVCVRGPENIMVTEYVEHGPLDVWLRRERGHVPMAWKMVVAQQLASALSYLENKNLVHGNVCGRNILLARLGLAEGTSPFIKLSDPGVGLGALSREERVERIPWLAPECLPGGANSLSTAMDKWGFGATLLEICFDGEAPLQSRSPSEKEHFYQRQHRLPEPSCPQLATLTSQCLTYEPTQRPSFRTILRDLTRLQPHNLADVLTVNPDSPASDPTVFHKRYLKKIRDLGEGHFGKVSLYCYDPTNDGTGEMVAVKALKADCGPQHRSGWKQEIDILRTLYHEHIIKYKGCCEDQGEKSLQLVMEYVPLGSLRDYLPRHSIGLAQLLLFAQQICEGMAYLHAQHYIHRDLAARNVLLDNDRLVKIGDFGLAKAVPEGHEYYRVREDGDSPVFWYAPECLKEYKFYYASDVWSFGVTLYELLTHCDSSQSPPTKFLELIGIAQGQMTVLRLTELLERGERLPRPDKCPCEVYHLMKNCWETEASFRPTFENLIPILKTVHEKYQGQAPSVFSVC
T2 sequence (Q5S007 whole entry): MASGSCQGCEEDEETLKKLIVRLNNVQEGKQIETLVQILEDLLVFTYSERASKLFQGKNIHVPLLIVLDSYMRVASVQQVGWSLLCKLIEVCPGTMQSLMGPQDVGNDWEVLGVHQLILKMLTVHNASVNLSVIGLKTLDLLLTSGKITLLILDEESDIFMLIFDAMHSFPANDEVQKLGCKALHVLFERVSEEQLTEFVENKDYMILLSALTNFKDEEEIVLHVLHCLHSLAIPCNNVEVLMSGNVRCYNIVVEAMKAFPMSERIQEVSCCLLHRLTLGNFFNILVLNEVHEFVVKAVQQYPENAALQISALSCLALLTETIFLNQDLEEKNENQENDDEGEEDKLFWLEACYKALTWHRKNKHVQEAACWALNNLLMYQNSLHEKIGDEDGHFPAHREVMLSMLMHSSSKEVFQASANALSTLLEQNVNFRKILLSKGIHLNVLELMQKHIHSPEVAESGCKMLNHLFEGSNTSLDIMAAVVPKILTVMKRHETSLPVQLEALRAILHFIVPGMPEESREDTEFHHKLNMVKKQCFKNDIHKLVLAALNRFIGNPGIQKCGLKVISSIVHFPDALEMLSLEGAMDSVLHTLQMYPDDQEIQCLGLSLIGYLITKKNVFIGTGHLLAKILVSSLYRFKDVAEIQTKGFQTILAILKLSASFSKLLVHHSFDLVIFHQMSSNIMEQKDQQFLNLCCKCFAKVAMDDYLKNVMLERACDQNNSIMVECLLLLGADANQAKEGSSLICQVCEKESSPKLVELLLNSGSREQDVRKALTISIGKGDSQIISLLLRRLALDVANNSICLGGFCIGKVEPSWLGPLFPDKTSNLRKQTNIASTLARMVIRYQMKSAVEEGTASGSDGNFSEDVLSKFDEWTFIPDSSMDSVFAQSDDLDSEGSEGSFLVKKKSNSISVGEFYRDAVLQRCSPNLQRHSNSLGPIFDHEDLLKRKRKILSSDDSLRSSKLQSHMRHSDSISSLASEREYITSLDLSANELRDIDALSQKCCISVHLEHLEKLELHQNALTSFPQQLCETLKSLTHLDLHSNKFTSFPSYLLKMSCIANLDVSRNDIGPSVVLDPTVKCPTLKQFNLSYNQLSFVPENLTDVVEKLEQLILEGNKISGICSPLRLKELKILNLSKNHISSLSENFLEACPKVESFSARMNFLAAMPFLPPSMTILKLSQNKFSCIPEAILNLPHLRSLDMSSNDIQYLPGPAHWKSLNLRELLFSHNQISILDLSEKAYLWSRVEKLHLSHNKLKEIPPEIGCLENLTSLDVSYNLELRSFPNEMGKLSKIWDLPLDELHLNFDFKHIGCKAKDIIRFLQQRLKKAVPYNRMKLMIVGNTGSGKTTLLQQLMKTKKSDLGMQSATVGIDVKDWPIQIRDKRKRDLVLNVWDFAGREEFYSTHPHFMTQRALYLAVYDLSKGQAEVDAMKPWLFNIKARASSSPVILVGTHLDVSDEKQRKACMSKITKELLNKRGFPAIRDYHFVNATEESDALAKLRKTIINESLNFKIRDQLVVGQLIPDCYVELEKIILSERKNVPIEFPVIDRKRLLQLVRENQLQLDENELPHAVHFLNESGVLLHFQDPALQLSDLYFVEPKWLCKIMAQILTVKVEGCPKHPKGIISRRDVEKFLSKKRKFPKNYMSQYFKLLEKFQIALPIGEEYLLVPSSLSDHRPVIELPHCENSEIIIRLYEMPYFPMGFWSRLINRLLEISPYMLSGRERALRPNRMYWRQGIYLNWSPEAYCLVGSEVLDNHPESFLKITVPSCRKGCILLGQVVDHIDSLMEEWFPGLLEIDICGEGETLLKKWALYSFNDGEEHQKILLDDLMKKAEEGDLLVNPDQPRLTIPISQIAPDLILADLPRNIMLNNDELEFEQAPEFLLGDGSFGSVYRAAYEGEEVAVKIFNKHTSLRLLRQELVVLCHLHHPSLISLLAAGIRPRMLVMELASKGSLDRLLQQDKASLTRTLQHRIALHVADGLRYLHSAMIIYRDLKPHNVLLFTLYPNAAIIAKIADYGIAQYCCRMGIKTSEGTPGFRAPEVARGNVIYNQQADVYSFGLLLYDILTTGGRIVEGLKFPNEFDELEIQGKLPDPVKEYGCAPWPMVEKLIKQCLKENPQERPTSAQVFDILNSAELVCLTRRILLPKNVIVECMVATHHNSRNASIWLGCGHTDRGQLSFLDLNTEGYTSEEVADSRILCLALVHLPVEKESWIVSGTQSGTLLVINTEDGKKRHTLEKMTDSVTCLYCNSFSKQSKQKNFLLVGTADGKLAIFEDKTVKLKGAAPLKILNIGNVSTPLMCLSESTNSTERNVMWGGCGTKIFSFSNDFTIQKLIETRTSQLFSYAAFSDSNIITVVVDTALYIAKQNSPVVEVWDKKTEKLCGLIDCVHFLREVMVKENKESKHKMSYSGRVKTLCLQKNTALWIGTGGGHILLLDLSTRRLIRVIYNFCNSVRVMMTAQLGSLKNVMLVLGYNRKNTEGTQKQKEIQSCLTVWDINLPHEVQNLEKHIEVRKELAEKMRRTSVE

inhibition at 0.01 µM [1] | inhibition at 0.1 µM [1] | EC50 [2] | EC50 [3] | Compound
40 to 79% | > 80% |  |  | CN1CCOCCOc2cc(Nc3ncc(F)c(-c4ccc(C(=O)NCC#N)cc4)n3)ccc2OCC1 [Example 16, N-(cyanomethyl)-4-(5-fluoro-2-((7-methyl-2,3,6,7,8,9-hexahydro-5H-benzo[b][1,4,7]trioxa[10]azacyclododecan-13-yl)amino)pyrimidin-4-yl)benzamide]
> 80% | > 80% | 0.5 to 5 µM |  | CN1CCOCCOc2cc(Nc3nc(-c4cnn(C(CC#N)C5CCCC5)c4)c4cc[nH]c4n3)ccc2OCC1 (stereo not shown) [Example 26, 3-cyclopentyl-3-(4-(2-((7-methyl-2,3,6,7,8,9-hexahydro-5H-benzo[b][1,4,7]trioxa[10]azacyclododecan-13-yl)amino)-7H-pyrrolo[2,3-d]pytimidin-4-yl)-1H-pyrazol-1-yl)propionitrile]
 |  | < 0.05 µM | < 0.5 µM | CCS(=O)(=O)N1CC(CC#N)(n2cc(-c3nc(Nc4ccc5c(c4)OCCN(C)CCO5)nc4[nH]ccc34)cn2)C1 [Example 28, 2-(1-(ethylsulfonyl)-3-(4-(2-((4-methyl-3,4,5,6-tetrahydro-2H-benzo[b][1,4,7]dioxazolin-9-yl)amino)-7H-pyrrolo[2,3-d]pytimidin-4-yl)-1H-pyrazol-1-yl)azetidin-3-yl) acetonitrile]
